Results: patent US9452986B2, “6-heteroaryloxy- or 6-aryloxy-quinoline-2-carboxamides and method of use” (AbbVie Inc., priority 2014, dated 2016)

These compounds were tested against recombinant human Nav1.7 (Homo sapiens (Human), UniProt Q15858) (assay: FRET-based membrane potential assay, recombinant human sodium channel Nav1.7). Details: HEK293 cells stably expressing recombinant human Nav1.7; veratridine + scorpion venom depolarization; read-out: FRET-Membrane Potential Nav1.7 IC50.
Type: cell-based
Description: FRET-Based Membrane Potential Assays.
Recombinant, Human Sodium Channel, Nav1.7.
On the day of the assay, medium was removed by aspiration, and cells were washed with assay buffer [HBSS (Invitrogen, Carlsbad, Calif.) containing 20 mM HEPES (Invitrogen, Carlsbad, Calif.)]. […] Cells were incubated for 40 minutes at room temperature in the dark. […] The cells were incubated for 90 minutes at room temperature in the dark. Fluorescence readings were made using a FLIPR®^TETRA (Molecular Devices, Sunnyvale Calif.) equipped with voltage-sensor probe optics. At the start of each experiment the optimal (EC80) concentration of depolarizing agent (veratridine) was determined by testing a dilution curve of assay buffer containing veratridine (Sigma-Aldrich, St. Louis, Mo.) and 1 mg/mL scorpion venom (SVqq, from Leiurus quinquestriatus; Sigma-Aldrich, St. Louis, Mo.). […] Test compounds in the daughter plate were diluted to (˜3×) solutions in assay buffer immediately before assaying. Using the FLIPR®^TETRA, 20 μL of the (3×) compound solutions were first added to the cells, then 20 μL of depolarizing solution (3×EC80 veratridine+SVqq) were added 3 minutes later to activate the channel. […] IC50 values were calculated from curve fits of the ratio data using a four-parameter logistic Hill equation (Accelrys Assay Explorer 3.3 Client, Accelrys, San Diego, Calif.) with percent inhibition plotted against compound concentration.

Sequence of recombinant human Nav1.7 (Q15858 whole entry): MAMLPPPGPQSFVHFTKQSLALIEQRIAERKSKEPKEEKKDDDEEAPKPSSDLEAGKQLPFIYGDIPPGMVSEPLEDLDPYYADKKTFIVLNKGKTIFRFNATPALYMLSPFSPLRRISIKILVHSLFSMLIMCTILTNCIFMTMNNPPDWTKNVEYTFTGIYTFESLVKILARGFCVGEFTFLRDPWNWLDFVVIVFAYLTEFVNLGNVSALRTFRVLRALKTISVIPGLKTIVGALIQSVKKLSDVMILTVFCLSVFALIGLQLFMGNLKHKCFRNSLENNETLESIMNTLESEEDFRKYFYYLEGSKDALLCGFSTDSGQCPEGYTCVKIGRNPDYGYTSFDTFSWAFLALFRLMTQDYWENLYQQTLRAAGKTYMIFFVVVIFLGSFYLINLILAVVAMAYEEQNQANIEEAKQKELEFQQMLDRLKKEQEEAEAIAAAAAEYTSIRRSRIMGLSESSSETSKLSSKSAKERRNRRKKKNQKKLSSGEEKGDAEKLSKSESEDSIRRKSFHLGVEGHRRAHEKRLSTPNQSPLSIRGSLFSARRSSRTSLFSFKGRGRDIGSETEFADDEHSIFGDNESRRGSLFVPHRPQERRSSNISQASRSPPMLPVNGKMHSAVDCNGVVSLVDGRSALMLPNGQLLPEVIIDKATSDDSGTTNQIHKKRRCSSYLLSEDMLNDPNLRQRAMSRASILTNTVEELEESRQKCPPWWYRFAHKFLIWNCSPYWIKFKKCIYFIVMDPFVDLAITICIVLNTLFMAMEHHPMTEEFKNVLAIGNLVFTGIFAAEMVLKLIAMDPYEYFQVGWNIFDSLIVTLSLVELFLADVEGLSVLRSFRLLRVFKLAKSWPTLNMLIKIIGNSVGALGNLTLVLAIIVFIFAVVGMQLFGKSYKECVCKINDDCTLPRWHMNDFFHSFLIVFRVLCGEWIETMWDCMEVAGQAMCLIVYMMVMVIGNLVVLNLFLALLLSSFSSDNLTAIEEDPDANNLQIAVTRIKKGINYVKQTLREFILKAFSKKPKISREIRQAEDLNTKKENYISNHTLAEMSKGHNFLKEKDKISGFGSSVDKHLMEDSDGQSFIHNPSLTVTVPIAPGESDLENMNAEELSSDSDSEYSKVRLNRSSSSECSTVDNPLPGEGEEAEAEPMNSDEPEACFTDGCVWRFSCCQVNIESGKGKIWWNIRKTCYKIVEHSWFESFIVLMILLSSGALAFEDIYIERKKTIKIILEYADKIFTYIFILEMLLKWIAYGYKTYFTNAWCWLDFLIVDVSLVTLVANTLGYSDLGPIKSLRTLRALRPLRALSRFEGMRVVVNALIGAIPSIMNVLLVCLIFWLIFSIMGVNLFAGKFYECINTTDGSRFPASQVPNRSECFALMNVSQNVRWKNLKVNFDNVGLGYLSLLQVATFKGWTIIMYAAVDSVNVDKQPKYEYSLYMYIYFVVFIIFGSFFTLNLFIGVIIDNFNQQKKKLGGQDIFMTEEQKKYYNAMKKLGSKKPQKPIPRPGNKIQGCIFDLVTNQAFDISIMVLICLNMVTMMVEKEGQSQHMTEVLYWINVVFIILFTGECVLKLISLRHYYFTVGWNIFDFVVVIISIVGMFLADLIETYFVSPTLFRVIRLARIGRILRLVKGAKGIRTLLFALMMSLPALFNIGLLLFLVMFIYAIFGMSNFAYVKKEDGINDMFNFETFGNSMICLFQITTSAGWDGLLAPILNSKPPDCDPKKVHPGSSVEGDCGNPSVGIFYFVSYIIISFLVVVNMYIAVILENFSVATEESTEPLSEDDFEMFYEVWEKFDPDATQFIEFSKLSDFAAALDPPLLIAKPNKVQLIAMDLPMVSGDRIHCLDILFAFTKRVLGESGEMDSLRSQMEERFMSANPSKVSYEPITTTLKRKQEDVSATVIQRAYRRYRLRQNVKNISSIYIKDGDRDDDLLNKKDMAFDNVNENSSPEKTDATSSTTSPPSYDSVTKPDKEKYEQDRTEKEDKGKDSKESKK

Row | Structure (SMILES) | IC50 [nM]
1 | COC(C)(C)CNC(=O)c1ccc2cc(Oc3ccc(C(F)(F)F)cn3)ccc2n1 [Example 541, N-(2-methoxy-2-methylpropyl)-6-{[5-(trifluoromethyl)pyridin-2-yl]oxy}quinoline-2-carboxamide] | 1190
2 | CCN1CCN(C(=O)c2ccc3cc(Oc4ccc(C(F)(F)F)cn4)ccc3n2)CC1 [Example 294, (4-ethylpiperazin-1-yl)(6-{[5-(trifluoromethyl)pyridin-2-yl]oxy}quinolin-2-yl)methanone] | 1400
3 | O=C(c1ccc2cc(Oc3ccc(C(F)(F)F)cn3)ccc2n1)N1CCN(c2ncccn2)CC1 [Example 270, [4-(pyrimidin-2-yl)piperazin-1-yl](6-{[5-(trifluoromethyl)pyridin-2-yl]oxy}quinolin-2-yl)methanone] | 3080
4 | O=C1CC(CNC(=O)c2ccc3cc(Oc4ccc(C(F)(F)F)cn4)ccc3n2)CN1 (stereo not drawn) [Example 609, N-[(5-oxopyrrolidin-3-yl)methyl]-6-{[5-(trifluoromethyl)pyridin-2-yl]oxy}quinoline-2-carboxamide] | 4500
5 | CNS(=O)(=O)N1CCN(C(=O)c2ccc3cc(Oc4ccc(C(F)(F)F)cn4)ccc3n2)CC1 [Example 235, N-methyl-4-[(6-{[5-(trifluoromethyl)pyridin-2-yl]oxy}quinolin-2-yl)carbonyl]piperazine-1-sulfonamide] | 2360
6 | NCCNC(=O)c1ccc2cc(Oc3ccc(C(F)(F)F)cn3)ccc2n1 [Example 338, N-(2-aminoethyl)-6-{[5-(trifluoromethyl)pyridin-2-yl]oxy}quinoline-2-carboxamide] | 984
7 | CC(C)[C@H](CO)NC(=O)c1ccc2cc(Oc3ccc(C#N)cc3)ccc2n1 [Example 91, 6-(4-cyanophenoxy)-N-[(2R)-1-hydroxy-3-methylbutan-2-yl]quinoline-2-carboxamide] | 3250
8 | O=C(c1ccc2cc(Oc3ccc(C(F)(F)F)nc3)ccc2n1)N1CC=CC1 [Example 539, 2,5-dihydro-1H-pyrrol-1-yl(6-{[6-(trifluoromethyl)pyridin-3-yl]oxy}quinolin-2-yl)methanone] | > 20000
9 | CC1(O)CCN(C(=O)CNC(=O)c2ccc3cc(Oc4ccc(C(F)(F)F)cn4)ccc3n2)C1 (stereo not drawn) [Example 561, N-[2-(3-hydroxy-3-methylpyrrolidin-1-yl)-2-oxoethyl]-6-{[5-(trifluoromethyl)pyridin-2-yl]oxy}quinoline-2-carboxamide] | 3470
10 | Cn1cc(S(=O)(=O)N2CCN(C(=O)c3ccc4cc(Oc5ccc(C(F)(F)F)cn5)ccc4n3)CC2)cn1 [Example 387, {4-[(1-methyl-1H-pyrazol-4-yl)sulfonyl]piperazin-1-yl}(6-{[5-(trifluoromethyl)pyridin-2-yl]oxy}quinolin-2-yl)methanone] | 2480
11 | O=C(NCCCN1CCCC1=O)c1ccc2cc(Oc3ccc(C(F)(F)F)cn3)ccc2n1 [Example 608, N-[3-(2-oxopyrrolidin-1-yl)propyl]-6-{[5-(trifluoromethyl)pyridin-2-yl]oxy}quinoline-2-carboxamide] | 2700
12 | O=C(c1ccc2cc(Oc3ccc(C(F)(F)F)cn3)ccc2n1)N(C1CCOCC1)C1CCOCC1 [Example 376, N,N-di(tetrahydro-2H-pyran-4-yl)-6-{[5-(trifluoromethyl)pyridin-2-yl]oxy}quinoline-2-carboxamide] | 3060
13 | O=C(NCCC(=O)N1CCCC1)c1ccc2cc(Oc3ccc(C(F)(F)F)cn3)ccc2n1 [Example 445, N-[3-oxo-3-(pyrrolidin-1-yl)propyl]-6-{[5-(trifluoromethyl)pyridin-2-yl]oxy}quinoline-2-carboxamide] | 268
14 | C[C@@H]1CN2C[C@@H](F)C[C@@H]2CN1C(=O)c1ccc2cc(Oc3ccc(C(F)(F)F)cn3)ccc2n1 [Example 357, [(3R,7S,8aR)-7-fluoro-3-methylhexahydropyrrolo[1,2-a]pyrazin-2(1H)-yl](6-{[5-(trifluoromethyl)pyridin-2-yl]oxy}quinolin-2-yl)methanone] | 2720
15 | COCO[C@H]1CN(C(=O)c2ccc3cc(Oc4ccc(C(F)(F)F)cn4)ccc3n2)C[C@H]1O (relative stereo) [Example 368, [cis-3-hydroxy-4-(methoxymethoxy)pyrrolidin-1-yl](6-{[5-(trifluoromethyl)pyridin-2-yl]oxy}quinolin-2-yl)methanone] | 1250
16 | NS(=O)(=O)CCNC(=O)c1ccc2cc(Oc3ccc(C(F)(F)F)cn3)ccc2n1 [Example 317, N-(2-sulfamoylethyl)-6-{[5-(trifluoromethyl)pyridin-2-yl]oxy}quinoline-2-carboxamide] | 3010
17 | O=C(c1ccc2cc(Oc3ccc(C(F)(F)F)cn3)ccc2n1)N1CCOC(CF)C1 (stereo not drawn) [Example 340, [2-(fluoromethyl)morpholin-4-yl](6-{[5-(trifluoromethyl)pyridin-2-yl]oxy}quinolin-2-yl)methanone] | 2900
18 | O=C(NCCC1CS(=O)(=O)C1)c1ccc2cc(Oc3ccc(C(F)(F)F)cn3)ccc2n1 [Example 615, N-[2-(1,1-dioxidothietan-3-yl)ethyl]-6-{[5-(trifluoromethyl)pyridin-2-yl]oxy}quinoline-2-carboxamide] | 2320
19 | O=C(c1ccc2cc(Oc3ccc(C(F)(F)F)cn3)ccc2n1)N1CCC(F)(F)CC1 [Example 330, (4,4-difluoropiperidin-1-yl)(6-{[5-(trifluoromethyl)pyridin-2-yl]oxy}quinolin-2-yl)methanone] | 2950
20 | O=C1CCN(C(=O)CNC(=O)c2ccc3cc(Oc4ccc(C(F)(F)F)cn4)ccc3n2)C1 [Example 572, N-[2-oxo-2-(3-oxopyrrolidin-1-yl)ethyl]-6-{[5-(trifluoromethyl)pyridin-2-yl]oxy}quinoline-2-carboxamide] | 2700
21 | CC(C)(O)CCNC(=O)c1ccc2cc(Oc3ccc(C(F)(F)F)cn3)ccc2n1 [Example 334, N-(3-hydroxy-3-methylbutyl)-6-{[5-(trifluoromethyl)pyridin-2-yl]oxy}quinoline-2-carboxamide] | 3440
22 | CN(C(=O)c1ccc2cc(Oc3ccc(C(F)(F)F)cn3)ccc2n1)C1COC1 [Example 480, N-methyl-N-(oxetan-3-yl)-6-{[5-(trifluoromethyl)pyridin-2-yl]oxy}quinoline-2-carboxamide] | 19900
23 | O=C(c1ccc2cc(Oc3ccc(C(F)(F)F)cn3)ccc2n1)N1CCC2(CC(O)C2)C1 (stereo not drawn) [Example 345, (2-hydroxy-6-azaspiro[3.4]oct-6-yl)(6-{[5-(trifluoromethyl)pyridin-2-yl]oxy}quinolin-2-yl)methanone] | 9150
24 | O=C(N[C@H]1CCC[C@H]1O)c1ccc2cc(Oc3ccc(C(F)(F)F)cn3)ccc2n1 [Example 401, N-[(1S,2R)-2-hydroxycyclopentyl]-6-{[5-(trifluoromethyl)pyridin-2-yl]oxy}quinoline-2-carboxamide] | 400
25 | O=C(c1ccc2cc(Oc3ccc(C(F)(F)F)cn3)ccc2n1)N1C[C@H]2CNC[C@H]2C1 [Example 164, (3 aR,6aS)-hexahydropyrrolo[3,4-c]pyrrol-2(1H)-yl(6-{[5-(trifluoromethyl)pyridin-2-yl]oxy}quinolin-2-yl)methanone] | 12700
26 | O=C(NCCN1CCCCC1)c1ccc2cc(Oc3ccc(C(F)(F)F)cn3)ccc2n1 [Example 175, N-[2-(piperidin-1-yl)ethyl]-6-{[5-(trifluoromethyl)pyridin-2-yl]oxy}quinoline-2-carboxamide] | 206
27 | CC(C)(C)N1CCN(C(=O)c2ccc3cc(Oc4ccc(C#N)cc4)ccc3n2)CC1 [Example 140, 4-({2-[(4-tert-butylpiperazin-1-yl)carbonyl]quinolin-6-yl}oxy)benzonitrile] | 559
28 | O=C(NC1CCS(=O)(=O)CC1)c1ccc2cc(Oc3ccc(C(F)(F)F)nc3)ccc2n1 [Example 535, N-(1,1-dioxidotetrahydro-2H-thiopyran-4-yl)-6-{[6-(trifluoromethyl)pyridin-3-yl]oxy}quinoline-2-carboxamide] | > 20000
29 | CN(C(=O)c1ccc2cc(Oc3ccc(C(F)(F)F)cn3)ccc2n1)C1CCS(=O)(=O)C1 (stereo not drawn) [Example 419, N-(1,1-dioxidotetrahydrothiophen-3-yl)-N-methyl-6-{[5-(trifluoromethyl)pyridin-2-yl]oxy}quinoline-2-carboxamide] | 11900

Same assay, conditions: read-out: FRET-Membrane Potential Nav1.7 IC50

Row | Structure (SMILES) | IC50 [nM]
30 | CCOCC1(F)CCN(C(=O)c2ccc3cc(Oc4ccc(C(F)(F)F)cn4)ccc3n2)C1 (stereo not drawn) [Example 488, [3-(ethoxymethyl)-3-fluoropyrrolidin-1-yl](6-{[5-(trifluoromethyl)pyridin-2-yl]oxy}quinolin-2-yl)methanone] | 526
31 | O=C(c1ccc2cc(Oc3ccc(C(F)(F)F)cn3)ccc2n1)N1CC(Oc2ccccc2)C1 [Example 201, (3-phenoxyazetidin-1-yl)(6-{[5-(trifluoromethyl)pyridin-2-yl]oxy}quinolin-2-yl)methanone] | > 20000
32 | O=C(NCC(O)C(F)(F)F)c1ccc2cc(Oc3ccc(C(F)(F)F)nc3)ccc2n1 (stereo not drawn) [Example 551, N-(3,3,3-trifluoro-2-hydroxypropyl)-6-{[6-(trifluoromethyl)pyridin-3-yl]oxy}quinoline-2-carboxamide] | 2770
33 | N#Cc1ccc(Oc2ccc3nc(C(=O)N[C@H]4CCS(=O)(=O)C4)ccc3c2)cc1 [Example 159, 6-(4-cyanophenoxy)-N-[(3S)-1,1-dioxidotetrahydrothiophen-3-yl]quinoline-2-carboxamide] | 730
